{"source": "patent EP0385952A2", "about": "“Use of a naphthalenmethanamino derivative as antiinflammatory agent and pharmaceutical compositions containing it” (SANDOZ AG, priority 1989, dated 1990)", "key": {"[1]": {"system": "neutrophils", "experiment": "Neutrophil exocytosis assay (FMLP-stimulated enzyme release)", "format": "cell-based"}, "[2]": {"system": "guinea pigs", "experiment": "UV-erythema model (2.2.)", "format": "in vivo", "settings": "therapeutic, test concentration 5.0 %, topical, erythema score", "experimental": "Female guinea pigs weighing 250-300 g are used. On the day before experiment they are shorn on both flanks followed by a final dry shaving without skin irritation two hours before UV exposure. Two circular areas (10 mm diameter) on each flank are exposed 10 seconds to ultraviolet rays from […] at an intensity of 16 mW/cm² (UVA) and 500 mW/cm² (UVB). Drugs are administered topically immediately after exposure to UV light in a volume of 50 µl of 25 % ethanol and 75 %polyethylenglycol-400 to the irradiated skin areas on the right flank. Two areas on the left flank serve as vehicle control. Erythema is assessed visually 3.5 and 5.5 hours after irradiation and results expressed in scores. Changes in erythema intensity after drug administration are expressed as percentages of the scored erythema intensity in vehicle-treated areas."}, "[3]": {"system": "platelets", "experiment": "Thromboxane B₂ production in platelets", "format": "cell-based", "settings": "Platelet, read-out: IC₅₀ for thromboxane B₂ production"}, "[4]": {"system": "human neutrophils", "experiment": "Zymosan-stimulated superoxide release", "format": "cell-based", "settings": "Neutrophil, read-out: IC₅₀ for zymosan-stimulated superoxide release"}, "[5]": {"system": "NMRI mice", "experiment": "Cantharidin-induced pinnal swelling in mice (irritant contact dermatitis, 2.1.1.)", "format": "in vivo", "settings": "epicutaneous, pinnal weight", "experimental": "Skin irritation with arachidonic acid or cantharidin is often used to experimentally induce inflammation in order to evaluate the anti-inflammatory activity of a compound [see e.g. Inflammation 8 (1984) 134-135; 10 (1986) 205-214]. NMRI mice (8 animals per group) receive 10 µl of a 10 % solution of arachidonic acid [J.M. Young et al., J. Invest. Derm. 82 (1986) 367-371] in acetone or, respectively, 0.08 % cantharidin [K.E. Swingle et al., Arch. Int. Pharmacodyn. Ther. 254 (1981) 168-176] in acetone applied to the medial and lateral surface of the right external ear. Treatment is performed either prophylactically 30 minutes before irritation (arachidonic acid) or, respectively, either simultaneously with the application of irritant solution or therapeutically 20 minutes after irritation (cantharidin), by a single epicutaneous application of the test compound dissolved in a mixture of N,N-dimethylacetamide, acetone and alcohol (2:2:4). The evaluation of the test group is effected by comparison with a control group of animals having received on the right ear lobe only the carrier substance or the irritant solution. The animals are killed 1.5 hours (arachidonic acid) or, respectively, 17 hours (cantharidin) after application of the irritant and efficacy in assessed by determination of the differences in auricular weight. Differences in weights (D) of right (involved) and left (uninvolved) pinnae of animals treated with test compound and arachidonic acid or cantharidin (T-group) are compared with differences in mice treated with arachidonic acid only or cantharidin only (C-group). Efficacy (%) is calculated according to the equation: [formula]"}, "[6]": {"system": "5,12-lipoxygenase", "experiment": "5,12-lipoxygenase inhibition (neutrophil functions)", "format": "cell-based", "settings": "read-out: IC₅₀ for 5,12-lipoxygenase"}, "[7]": {"system": "human cell line Mono-Mac-6", "experiment": "LPS-induced NAP1/IL-8, αTNF- and IL-1β-mRNA accumulation (RNA blotting)", "format": "cell-based", "experimental": "Human Mono-Mac-6 cells, which have many of the phenotypic and functional characteristics of mature peripheral blood monocytes [H. Ziegler et al, Int. J. Cancer 41 (1988) 456-461] are grown up to 10⁶ cells/ml im RPMI 1640 medium supplemented with 10 % FCS, 1 % pen/strep and 0.25 % amphotericin. In each of 6 activation experiments 10⁷ cells are incubated for 4 hours at 37°C and 5 % CO₂. LPS is used in a concentration of 1 µg/ml and the test substance in concentrations of 10⁻⁵ M to 10⁻⁷ M.\nAfter induction times the cells are pelleted [5 min, 1200 rpm, room temperature]. Total cellular RNA is extracted from the pelleted cells using the guanidinium isothiocyanate/cesium chloride method of J.M. Chirgwin et al., Biochemistry 18 (1979) 5294-5299. 10 µg samples of the extracted RNA are size-fractionated by 1.2 % formaldehyde agarose gel electrophoresis [T. Maniatis et al., Molecular Cloning: A Laboratory Manual, Cold Spring Harbour, New York (1982) p. 187-206], transferred to synthetic membranes (Hybond N, Amersham) with 20xSSC (1xSSC is 150 mM NaCl, 15 mM sodium citrate, pH 7.0) overnight. The filters are baked for 2 hours at 65°C and prehybridized for 4 hours at 65°C in 5xSSC, 10x Denhardt's solution (1x Denhardt's solution is 0.02 % bovine serum albumin, 0.02 % polyvinyl pyrrolidone, 0.02 % ficoll), 10 % dextrane sulphate, 20 mM sodium phosphate pH 7.0, 7 % SDS, 100 µg/ml sonicated salmon sperm DNA, and 100 µg/ml polyA. ³²P-labelled synthetic NAP1/IL8, αTNF and IL-1β oligonucleotide probes are used as the hybridization probes. Hybridization is performed at 65°C in the pre-hybridization buffer containing the labelled probe for 16 hours. The blots are washed once in 5 % SDS, 3xSSC, 10x Denhardt's solution, 20 mM sodium phosphate pH 7.0 for 30 minutes at 65°C, and once in 1xSSC, 1 % SDS at 65°C for 30 minutes. Filters are exposed at -70°C to KODAK XAR-5 films using intensifying screens. After washing for 30 minutes in 0.1 % SDS at 65°C, blots are reused for a second hybridization with a β-actin specific oligonucleotide probe to quantitate the mRNA amounts."}, "[8]": {"settings": "remaining level, 10.0 µM, LPS 1 µg/ml, 4 hours"}}, "note": "Read-outs that look alike come from different tables or passages of the source. Marks after values point to notes of the source that are not given here."}
{"compound": "CN(C/C=C/c1ccc(O)cc1)Cc1cccc2ccccc12", "note": "[compound of the invention, (E)-N-methyl-N-[3-(4-hydroxyphenyl)-2-propenyl]-1-naphthalene-methanamine]", "values": [{"measurement": "IC50", "setting": "[1]; read-out: IC₅₀ for FMLP-stimulated release of azurophil granule enzymes", "result": "> 100", "unit": "µM"}, {"measurement": "IC50", "setting": "[1]; read-out: IC₅₀ for FMLP-stimulated release of lysosomal enzymes", "result": "> 100", "unit": "µM"}, {"measurement": "IC50", "setting": "[1]; read-out: IC₅₀ for FMLP-stimulated release of specific granule enzymes", "result": "> 100", "unit": "µM"}, {"measurement": "Efficacy (%)", "setting": "[2]", "result": 27, "unit": "%"}, {"measurement": "IC50", "setting": "[3]", "result": 100, "unit": "µM"}, {"measurement": "IC50", "setting": "[4]", "result": "> 100", "unit": "µM"}, {"measurement": "Efficacy (%)", "setting": "[5]; simultaneous, test concentration 1.2 %", "result": 26, "unit": "%"}, {"measurement": "Efficacy (%)", "setting": "[5]; simultaneous, test concentration 3.6 %", "result": "52** %"}, {"measurement": "Efficacy (%)", "setting": "[5]; therapeutic, test concentration 1.2 %", "result": 25, "unit": "%"}, {"measurement": "Efficacy (%)", "setting": "[5]; therapeutic, test concentration 3.6 %", "result": "50** %"}, {"measurement": "IC50", "setting": "[6]", "result": 45, "unit": "µM"}, {"measurement": "concentration inhibiting lps-induced transcription of nap-1/il-8, αtnf and il-iβ", "setting": "[7]; mono-mac 6 cell line, summary statement", "result": "about 10 µm"}, {"measurement": "LPS-induced IL-1β-mRNA accumulation decreased to", "setting": "[7]; [8]", "result": 50, "unit": "%"}, {"measurement": "LPS-induced NAP1/IL-8-mRNA accumulation decreased to", "setting": "[7]; [8]", "result": 20, "unit": "%"}, {"measurement": "LPS-induced αTNF-mRNA accumulation decreased to", "setting": "[7]; [8]", "result": 10, "unit": "%"}]}
